In patent US20230303598A1, “BIOINSPIRED LIPID DERIVATIVES AND USES THEREOF” (Ohio State Innovation Foundation, priority 2020, published 2023) one finds mRNA delivery effectiveness data, which are given here for one compound.

This assay has as its system Hep3b cells. As to the kind of experiment: in vitro mRNA delivery screening of ionizable lipid LNPs with mRNA encoding firefly luciferase. Format: cell-based. To be noted: LNPs of compound/DOPE/cholesterol/PEG-lipid at ratios 20:30:40:0.75, 40:30:40:0.75 and 60:30:40:0.75, Hep3b cells (FIGS. 1-3). The source says:
FIG. 1 illustrates the results of in vitro mRNA delivery screening of ionizable lipids in Hep3b cells at a ratio of 20:30:40:0.75 (compound/DOPE/cholesterol/PEG-lipid).
FIG. 2 illustrates the results of in vitro mRNA delivery screening of ionizable lipids in Hep3b cells at a ratio of 40:30:40:0.75 (compound/DOPE/cholesterol/PEG-lipid).
FIG. 3 illustrates the results of in vitro mRNA delivery screening of ionizable lipids in Hep3b cells at a ratio of 60:30:40:0.75 (compound/DOPE/cholesterol/PEG-lipid).
Phosphates and phosporamide lipid-like compounds First, forty ionizable lipids were synthesized. Then, these ionizable lipids were formulated with DOPE/cholesterol/PEG-lipid at three different ratios (20:30:40:0.75, 40:30:40:0.75, and 60:30:40:0.75) to prepare lipid nanoparticles (LNPs) and screened in Hep3b cells using mRNA-encoding firefly luciferase.

`CCCCCCCC/C=C\CCCCCCCCOP(=O)(OCCCCCCCC/C=C\CCCCCCCC)OCCN(C)C` [ZYB20200113-1]: the mRNA delivery effectiveness result is listed as “more effective for mRNA delivery than other ionizable lipids”.
